Reference: US8987486B2, “Trans-2-decenoic acid derivative and pharmaceutical agent containing the same” (Nagoya Industrial Science Research Institute, priority 2010, dated 2015)

Key:
MAP kinase = assay: Activation (phosphorylation) of MAP kinase by Western immunoblotting in cultured cerebral cortex nerve cells; format: cell-based, rat; details: Test Example 6, relative to control (0 μg/mL = 1.0)
Method: With regard to the compound 1 ((E)-2-(dimethylamino)-ethyl dec-2-enoate), activation of MAP kinase was measured as follows by a Western immunoblotting.
Nerve cells were dispersed from cerebral cortex of a fetal rat of 17 days age and said nerve cells were cultured for one day in a Dulbecco-modified Eagle medium (DMEM) containing 5% fetal bovine serum. The culture medium was exchanged with a serum-free medium (B27 supplement-added Neurobasal; Invitrogen) and the nerve cells were cultured at the density of 20,000 to 40,000 cells per cm^2 in a culture dish coated with polyornithine.
After three days, the compound 1 was added and the culture was continued for 30 minutes. After that, the cells were recovered on ice using a solution containing a phosphatase inhibitor where Tris-HCl buffer was a base. Protein concentration of the resulting cell extract was quantified using a BCA Protein Assay Kit (Takara Bio KK) and a certine amount of protein (3 μg for the measurement of MAP kinase and 5 μg for the measurement of phosphorylated MAP kinase) was subjected to polyacrylamide gel electrophoresis. The protein was transcribed from the gel after the electrophoresis to a PVDF membrane and a Western immunoblotting was carried out using each of an anti-MAP kinase antibody (Cell Signaling Technology) and an anti-phosphorylated MAP kinase antibody (Cell Signaling Technology) of the primary antibody.
After that, the reaction with an alkaline phosphatase-labeled anti-rabbit IgG antibody (Promega) of the secondary antibody was carried out so that the enzymatic activity was colorized whereupon the MAP kinase and the phosphorylated MAP kinase were measured.
Incidentally, the compound 1 was adjusted to the concentrations of 10 μg/ml, 30 μg/ml, 100 μg/ml and 300 μg/ml by dissolving in 0.1% DMSO. With regard to the control, 0.1% DMSO was added.
Intensity of the concentration of the above-obtained band of the gel subjected to electrophoresis was calculated and quantified using Image J (K. K. Bioarts). The numerical value for the MAP kinase using the compound 1 was divided by the numerical value for the MAP kinase of the control and, further, the numerical value for the phosphorylated MAP kinase using the compound 1 was divided by the numerical value for the phosphorylated MAP kinase of the control whereupon the ratio of the MAP kinase using the compound 1 to the control and the ratio of the phosphorylated kinase using the compound 1 to the control were determined.
After that, the resulting ratio of the phosphorylated MAP kinase to the control was divided by the resulting ratio of the MAP kinase to the control to determine the ratio of the phosphorylated MAP kinase to the MAP kinase (cf. Table 5). In Table 5, “MAPK” means a MAP kinase and “pMAPK” means a phosphorylated MAP kinase. “10”, “30”, “100” and “300” in Table 5 show the examples where 10 μg/ml, 30 μg/ml, 100 μg/ml and 300 μg/ml of the compound 1 were added.
MAP kinase and phosphorylated MAP kinase were measured for the compound 6 ((E)-2-(diethylamino)ethyl dec-2-enoate) and the compound 13 ((E)-2-(2-(diethylamino)ethoxy)ethyl dec-2-enoate) by the same method as in Test Example 1.
Each of the compounds 6 and 13 was dissolved in 0.1% DMSO to adjust to the concentration of 250 μg/ml. With regard to the control, 0.1% DMSO was added. With regard to the concentration of the resulting band of the gel subjected to electrophoresis, its intensity was calculated by the same method as in Test Example 1 using Image J (K. K. Bioarts) and the ratio of the phosphorylated MAP kinase to the control was divided by the resulting ratio of the MAP kinase to the control whereupon the ratio of the phosphorylated MAP kinase to the MAP kinase was determined (cf. Table 6).
With regard to the compound of the present invention, its activation for MAP kinase was measured by the same manner as in Test Example 1.
Each compound was dissolved in 0.1% DMSO to adjust to the concentrations of 30 μg/ml, 60 μg/ml, 125 μg/ml and 250 μg/ml. […]

[1] = tested on: paclitaxel-induced peripheral nerve disorder rats; assay: von Frey test in paclitaxel-induced peripheral nerve disorder rats; format: in vivo; details: Rattus norvegicus, ip; single intraperitoneal dose of 300 μ/kg; higher of the thresholds after 1 hour and 5 hours; normal threshold 15; read-out: Recovery rate of 50% reaction threshold value (%)
Method: The effect of the compound of the present invention was tested for a peripheral nerve disorder which is a side effect induced by the administration of paclitaxel (an anti-cancer agent) such as hyperesthesia including allodynia (severe pain induced by such tactile stimuli which usually cause no pain). The compound of the present invention was intraperitoneally administered to rats as a test drug to conduct a von Frey test.
Male SD rats of six weeks age (one group comprising six rats) were used as experimental animals and paclitaxel (2 mg/kg) was intraperitoneally administered every other day for four times in total to prepare paclitaxel-induced peripheral nerve disorder rats. During 18 and 25 days or during 20 to 27 days after initiation of paclitaxel administration, the test drug was intraperitoneally administered in a single dose of […] and the following von Frey test was conducted.
The rats of the above (1) were placed in a transparent acrylic cage with a wire-meshed floor and habituated for about three minutes and the 50% reaction threshold values to the mechanical stimulus of right hind limb were measured before administration of the test drug and after 1, 5 and 24 hours from initiation of the administration.
The measurement was conducted using von Frey filaments (manufactured by North Coast Medical Inc.) in accordance with the methods of Chaplan, et al. (Journal of Neuroscience Methods, vol. 53, no. 1, pages 55 to 63, 1994) and Dixon, et al. (Annual Review of Pharmacology and Toxicology, vol. 20, pages 441 to 462, 1980). […] The case where the rat escaped at the instance of removing the filament was also called positive. When the positive reaction was noted, stimulus was conducted similarly using a filament of one rank weaker while, when no reaction was noted, stimulus was conducted similarly using a filament of one rank stronger and the point when the reaction changed from negative to positive or from positive to negative was called the first two reactions. After that, stimulus was conducted for continuous four times by the same up-down method. A 50% reaction threshold value to the mechanical stimulus was measured using the reaction to the six stimuli in total and then (mean value)±(standard error) for each group was calculated. Incidentally, when stimulus reached by that of 15.0 g without positive reaction or, when positive reaction continued to 0.4 g, then 15.0 g or 0.25 g was adopted as each threshold value, respectively. With regard to the higher 50% reaction threshold value between the 50% threshold values after 1 hour and 5 hours from administration of a test drug, a recovery rate (%) of the 50% reaction threshold value was calculated by the following expression in which 15 was adopted as the normal threshold value. Recovery rate (%) of 50% reaction threshold value=[(50% reaction threshold value after 1 hour or 5 hours from administration of test drug)−(50% reaction threshold value before administration of test drug)]/[(Normal threshold value)−(50% reaction threshold value before administration of test drug)]

CCCCCCC/C=C/C(=O)SCCN(CC)CC [Compound 56, (E)-S-2-(diethylamino)ethyl dec-2-enethioate]
Ratio of pMAPK to MAPK (MAP kinase; 60 μg/mL): 5.0
Ratio of pMAPK to MAPK (MAP kinase; 125 μg/mL): 7.4
Ratio of pMAPK to MAPK (MAP kinase; 250 μg/mL): 5.7
inhibition in vivo at 0.3 mg/kg [1]: 60.5%
